Here are results for 2 compounds from article PMC10950880, “The RsfSR two-component system regulates SigF function by monitoring the state of the respiratory electron transport chain in Mycobacterium smegmatis” (The Journal of Biological Chemistry, 2024).

Experiment [1] addresses T1, RsfSTr (truncated RsfS, MSMEG_6130) (Mycolicibacterium smegmatis, UniProt A0R5B3).
T1 construct: kinase domain only (amino acids 190-525), lacks CHASE3 and N-terminal region; C-terminal His6 kept; from E. coli BL21; partially purified
The experiment can be described thus: autophosphorylation and phosphotransfer to RsfR, Phos-tag SDS-PAGE. It is filed as biochemical. The following applies: 1 mM ATP, 300 mM Tris-HCl pH 8, 50 mM KCl, 10 mM MgCl2, 30 C; covalent.

Experiment [2] concerns the target T2, RsfR (MSMEG_6131) (Mycolicibacterium smegmatis, UniProt A0R5B4).
T2 construct: C-terminal His6 kept; from E. coli BL21 (DE3), pT7-7rsfR
T2 sequence (A0R5B4 1-402): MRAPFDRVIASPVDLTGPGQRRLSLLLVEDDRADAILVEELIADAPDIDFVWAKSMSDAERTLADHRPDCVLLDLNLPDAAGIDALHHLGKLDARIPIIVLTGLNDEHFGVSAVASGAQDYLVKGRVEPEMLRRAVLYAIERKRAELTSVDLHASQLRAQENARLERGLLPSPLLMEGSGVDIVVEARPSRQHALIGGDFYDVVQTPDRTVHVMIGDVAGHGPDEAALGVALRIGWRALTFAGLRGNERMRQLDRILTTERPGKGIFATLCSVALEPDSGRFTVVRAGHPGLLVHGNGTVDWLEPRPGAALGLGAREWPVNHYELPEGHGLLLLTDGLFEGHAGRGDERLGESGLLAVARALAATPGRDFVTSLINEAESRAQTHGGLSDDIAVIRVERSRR
Put plainly: phosphorylation of RsfR by acetyl phosphate (Phos-tag SDS-PAGE); RsfR then tested on P-RsfB. It is filed as biochemical. The note with it: 40 mM acetyl phosphate, 300 mM Tris-HCl pH 8.0, 50 mM KCl, 10 mM MgCl2, no ATP, 30 C; phosphodonor, covalent.

Molecules are shown by their SMILES.

T1 sequence (A0R5B3 entry or part of it): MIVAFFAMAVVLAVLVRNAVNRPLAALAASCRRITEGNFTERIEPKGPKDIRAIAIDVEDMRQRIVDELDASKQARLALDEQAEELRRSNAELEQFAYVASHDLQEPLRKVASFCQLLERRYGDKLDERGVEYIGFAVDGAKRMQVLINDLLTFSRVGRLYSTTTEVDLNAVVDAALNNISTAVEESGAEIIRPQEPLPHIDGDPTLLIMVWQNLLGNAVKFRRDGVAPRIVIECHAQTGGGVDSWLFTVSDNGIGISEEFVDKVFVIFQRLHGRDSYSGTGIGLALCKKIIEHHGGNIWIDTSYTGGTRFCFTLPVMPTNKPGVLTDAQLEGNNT

For `Nc1ncnc2c1ncn2[C@@H]1O[C@H](COP(=O)(O)OP(=O)(O)OP(=O)(O)O)[C@@H](O)[C@H]1O` [ATP], the “autophosphorylation and phosphotransfer to RsfR, Phos-tag SDS-PAGE” value in experiment [1] is reported as “RsfSTr was autophosphorylated in the reaction mixture”.
Consider `CC(=O)OP(=O)(O)O` [acetyl phosphate], for which the “RsfR phosphorylation by acetyl phosphate” value in experiment [2] was “Acetyl phosphate phosphorylated purified RsfR less efficiently than RsfSTr”.
